Results published in patent publication US20230234920A1, “Azirine Containing Compounds as Anti-Angiogenesis Agents and a Process for the Preparation Thereof” (COUNCIL OF SCIENTIFIC & INDUSTRIAL RESEARCH, priority 2020, published 2023).

Columns and labels:
HUVECs [1] = assay: 3D angiogenesis assay (cytodex beads in fibrin matrix); format: cell-based, human
Experimental: (A) ECs were seeded on fibrinogen matrix and were treated with sunitinib and compound 1 at indicated concentrations. Post 5 days of incubation pictures were taken at 10× using inverted microscope. (B) Tube length was quantified using Leica QWin software and graph was plotted taking control (0.01% DMSO) treated cells. Data are represented as mean±SEM with significant difference from control at *p<0.05, **p<0.01 and ***p<0.001.
Anti-angiogenic effect of Compound 1 was further validated by 3D angiogenesis assay (FIG. 5).
Endothelial cells (ECs) were trypsinized and then coated on cytodex beads at the rate of 1500 cells per bead in 5% DMEM medium at 37° C. for 4 h by rotating it gently on IP rotor. Fibrinogen (2 mg/mL) and Aprotonin (40 U/μL) were added to the ECs coated beads and this was subsequently added to the 96 well plate pre-coated with […] (10 U/μL) and incubated for 15 min. Vehicle control in 2.5% DMEM media with different doses of Compound 1 (500 nM, 250 nM, 125 nM and 75 nM) were used to observe the anti-angiogenic effect of Compound 1 on 3D angiogenesis pattern. Post 3 days of incubation the results were observed and photographs were taken under inverted microscope (Olympus, Centre Valley, Pa., USA) and relative tubule lengths were measured using Leica Q-Win software version 3.5.1. (Leica Microsystems, Switzerland).

Balb/c mice = assay: Ear angiogenesis assay; format: in vivo; conditions: 750 nM along with VEGF and bFGF
Experimental: (A) Control (0.1% DMSO), (B) sunitinib and (C) Compound 1 at their indicated concentration dissolved in 100 μL of 1×PBS injected into the […] of Balb/c mice (5 mice/treatment group). After 7 days of treatment ears were harvested, cryo-sectioned at […] thickness. CD31 immunostained and photographed under inverted microscope at 20× magnification. (B) Vasculature was quantified by counting total macro and micro blood vessels. Plotted graph is representative of four independent experiments and are represented as mean±SEM with significant difference compared with control at *p<0.05.
Sterile 1×PBS having mouse VEGF (50 ng/mL), bFGF (50 ng/mL), Heparin (10 mg/mL) and sunitinib (2 μM) as a positive control along with compound 1 (750 nM) as a test compound were injected subcutaneously into the ear of 8- to 12-week old male Balb/c mice. Equal volume of 1×PBS with all components except drug was used as a control and was injected in contra lateral ear. After 6 days, mice were sacrificed and the ears were excised and embedded in OCT for cryo-sectioning. Frozen sections of […] sizes were immunostained with endothelial cell markers anti CD31 and anti PECAM 1 antibody. This was quantified by total number of blood vessels count.

HUVECs [2] = assay: Capillary-like tube formation assay (tubulogenesis); format: cell-based, human
Outline: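 HUVECs seeded on Matrigel (regular or reduced growth factor) in incomplete ECM basal medium, treated with compound for 6 h; VEGF 50 ng/mL positive and sunitinib 50 nM negative controls. Calcein-AM-stained tubules imaged at 10× and tubule length expressed as % of 0.1% DMSO vehicle.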

Compound: CCOC(=O)C1N=C1CCc1ccc(OC)cc1 (racemic) [Compound 1, Ethyl 3-(4-methoxyphenethyl)-2H-azirine-2-carboxylate]
- tubule formation (HUVECs [1]; 75 nM): 100%
- tubulogenesis in 3D angiogenesis (HUVECs [1]; 500 nM, 250 nM, 125 nM and 75 nM vs control): tubulogenesis inhibitory effect
- CD31 expression and micro-vessels density (Balb/c mice): reduced CD31 expression and micro-vessels density
- anti-angiogenic activity on primary tubulogenesis screening (HUVECs [2]): 75 nM
- tubule formation (HUVECs [2]; 25 nM, 6 h): complete angiogenesis
- tubule formation as compared to control (HUVECs [2]; 75 nM, 6 h): 50%
- tubule formation (HUVECs [2]; 100 nM combined with sunitinib at 20 nM, 6 h): approximately 15%
- tubule formation (HUVECs [2]; 250 nM till 125 nM, 6 h): light increase in the tubule formation
- tubulogenesis inhibition (HUVECs [2]; 10 μM till 500 nM, 6 h): complete tubulogenesis inhibition
- IC50 (HUVECs [2]; Homo sapiens, HUVEC, endothelial tubule network assay, anti-angiogenic activity, read-out: IC50 value): 75 nM
- remarks (HUVECs [2]; remark on IC50 versus sunitinib): comparable to sunitinib
- toxic effect on the cells (HUVECs [2]; till 500 nM, 6 h): no toxic effect
